Data on 5 molecules can be found in PMC5638916, “CETSA quantitatively verifies in vivo target engagement of novel RIPK1 inhibitors in various biospecimens” (Scientific Reports, 2017).

One experiment has as its system HT-29 cells. As to the kind of experiment: HT-29 necroptosis assay. The format is cell-based, human. The settings on record: TNF-α + AT-406 + zVAD-FMK, 16–20 h, read-out: HT29-Necroptosis (IC50) (converted). As to the method: The efficacies of RIP1 inhibitors were tested in vitro using HT-29 cells and L929 cells in a necroptosis assay. For HT-29 necroptosis assay, frozen HT-29 cells were thawed and diluted to 1.5 × 10^5 cells ml^−1 in McCoy’s 5 A Medium (16600108, Invitrogen) supplemented with 10% FBS, 100 U ml^−1 penicillin, and 100 μg ml^−1 streptomycin. A 20 μl aliquot of cell suspension was added to each well of a 384-assay plate and the cell culture plates were incubated for 16–20 h at 37 °C, 5% CO2. After overnight incubation, 2.5 μl of inhibitor dissolved in culture medium was added to each well of the cell plates, and then each well was treated with 2.5 μl of necroptosis inducer containing […], AT-406, and zVAD-FMK solution at final concentrations of 200 ng ml^−1, 10 μM, and 200 μM, respectively. Lidded plates were incubated for 16–20 h at 37 °C, 5% CO2. The next day, the supernatant of culture medium in each well was evaluated with CytoTox 96 Non-Radioactive Cytotoxicity Assay (G1780, Promega) according to the manufacturer’s instructions. The absorbance of the test plate was measured by 2103 EnVision Multilabel plate reader.
A, no necroptosis inducer; B, necroptosis inducer; X, necroptosis inducer plus test inhibitor. IC50 values were calculated with XLfit software (IDBS) using a four-parameter logistic curve.

The next experiment relates to phospho (Ser-345)-MLKL. As to the kind of experiment: Mouse phospho (Ser-345)-MLKL ELISA assay in L929 cells. Format: cell-based. Particulars: read-out: L929-pMLKL (IC50).
In a further experiment the test system is L929 cells. As to the kind of experiment: L929 necroptosis assay. The format is cell-based. The settings on record: mouse TNFα + Z-VAD-FMK, 4 h.
Experiment [1] concerns MLKL phosphorylation (p-MLKL). In words: Immunoblot of MLKL phosphorylation in isolated CD11b+Ly-6G- monocytes. The format is cell-based, mouse. Particulars: isolated CD11b+Ly-6G- monocyte cells. As to the method:
reaction. […] An excitation filter of
Inhibition rate was ex pressed as percent
(%) inhibition of internal assay controls. Percentage inhibition was calculated from the signal […]
For concentration response
(IDBS) using a four-parameter logistic curve. The value of Ki (the inhibitory constant) was […]
In vitro and ex vivo whole blood necroptosis assay. For the isolation of mouse monoc yte […]
density centrifugation over Ficoll-Paque Plus (GE Healthcare). Then, CD11b+/ Ly -6G- […]
manufacturer ’s recommendation. […]
treatment (no stimulation, TSZ stimulation with DMSO control, and TSZ stimulation with […] Nec- 1). As a result, the monocyte and neutrophil fraction was decreased, in which fractions onl y the monocyte fraction was restored by the treatment of RIPK1 inhibitor. (b) Monocyte cell number was counted as CD11b+/Ly-6G- population by FACS staining for further confirmation, since CD11b+ fraction contains Ly-6G+ neutrophil population. The left-hand graph indicates the CD11b+Ly-6G- monocyt e population which was calculated from flow c ytometr y analysis. Representative plots are indicated in the right- hand panels in which CD11b+/ Ly-6G- population are shown as blue dots. Significant reduction in monocyte […]
25 treatment. (c) C D 1 1 b + Ly -6G- monoc yte cells were isolated as des cribed in Supplementary Fi g. 4b and anal ysed b y i mmunoblotting using the indicated antibodies. […]
In general terms: In western blotting, separated proteins are transferred to a membrane and probed.

Experiment [2] concerns CD11b+/Ly-6G- monocytes in mouse whole blood. In words: In vitro whole blood necroptosis assay (monocyte cell death). Format: cell-based. The settings on record: for restoration of monocyte number/fraction after TSZ stimulation: FACS.
Experimental: For in vitro whole blood assa y, 40 µl of peripheral blood were added to each well of the 96-well plate containing 12 µl of the appropriate concentration of inhibitors and 56 µl of RPMI1640 medium supplemented with 100 U ml –1 penicillin and 100 µ g ml–1 streptom ycin.
After 30 min inhibitor incubation, 12 µ l of mixture of necroptosis inducer including mouse TNF-α, AT -406, and zVAD-FMK was added to each well (final concentrations of 10 ng ml–1, 1 µM, and 20 µM, respectively), and then the cells were incubated for 16–20 h at 37°C with 5% CO2. After overnight incubation, cultured blood cells were mixed with Mouse BD Fc Block™ (553142, BD Biosciences) to block Fc receptor followed by the reaction with appropriate antibodies for 30 min on ice. Then, red blood cells were eliminated b y adding 1x lysing buffer (555899, BD Biosciences) and the cells were washed once with PBS supplemented with 1% FBS. Cells were anal ysed on an SORP LSRII Fortessa or a SORP FA C S C anto II flow c ytometer (BD Biosciences).
For ex vivo experiments, 40 µl of peripheral blood was mixed with 68 µl of RPMI1640 and resulting 108 µ l of diluted blood were added to each well of a 96- assa y pl ate with 12 µ l of mixture of necroptosis inducer mentioned above, and then the cells were incubated for 16–20 h at 37°C with 5% CO 2. The next day, the cells were collected and monocyte population was anal ysed b y flow cytometry following the procedure described above. Percentage inhibition was calculated from the signal intensity of FACS anal ysis b y
(§1) estimated using a four-parameter logistic curve using GraphPad Prism 6.01 software (GraphPad Software Inc., La J olla, CA, USA). All of the data are shown as mean ± SEM.
Another experiment concerns the target T1, human RIPK1 (Homo sapiens, UniProt Q13546).
T1 construct: ITDRF values of half-maximal stabilization of endogenous RIPK1; endogenous in cells; host or cells: HT-29
T1 sequence (Q13546 1-671): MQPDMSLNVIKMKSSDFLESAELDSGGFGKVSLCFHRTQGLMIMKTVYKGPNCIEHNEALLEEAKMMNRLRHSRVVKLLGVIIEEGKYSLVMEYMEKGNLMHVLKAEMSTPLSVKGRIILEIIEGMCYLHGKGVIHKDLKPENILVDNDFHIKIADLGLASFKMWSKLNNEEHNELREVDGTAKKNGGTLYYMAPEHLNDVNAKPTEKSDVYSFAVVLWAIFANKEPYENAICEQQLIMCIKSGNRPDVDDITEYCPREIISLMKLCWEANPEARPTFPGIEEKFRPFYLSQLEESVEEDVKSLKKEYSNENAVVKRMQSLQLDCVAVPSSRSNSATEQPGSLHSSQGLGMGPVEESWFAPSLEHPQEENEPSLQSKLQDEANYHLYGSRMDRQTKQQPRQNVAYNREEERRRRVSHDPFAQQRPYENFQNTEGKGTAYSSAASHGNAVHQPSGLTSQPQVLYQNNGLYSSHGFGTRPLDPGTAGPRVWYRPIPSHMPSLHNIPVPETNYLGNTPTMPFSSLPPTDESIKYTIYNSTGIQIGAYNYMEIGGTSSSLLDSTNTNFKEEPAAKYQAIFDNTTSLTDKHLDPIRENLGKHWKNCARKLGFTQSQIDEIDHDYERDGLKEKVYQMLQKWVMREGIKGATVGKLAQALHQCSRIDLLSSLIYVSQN
As to the kind of experiment: CETSA (Tagg curves and ITDRF) for human RIPK1 with HT-29 cells. Format: cell-based. The settings on record: compound 30 min, 47 °C for 8 min denature, independent runs reported, read-out: human_ITDRF-CETSA (EC50). On the procedure: HT-29 and L929 cells were harvested and suspended with culture media containing 10% FBS to a cell density of 2 × 10^6 cells ml^−1. Mouse peripheral blood was collected from C57BL/6 J (female, 10-week-old, Charles River Japan) and PBMCs were isolated by density centrifugation over Lympholyte®-Mammal Cell Separation Media, Mammalian (CL5110, Cedarlane Laboratories) according to manual instructions. Briefly, approximately 500 μl of blood was carefully overlaid on 250 μl of the separation media so as not to disturb the layer. The samples were immediately spun at 800 g for 20 min at room temperature. After centrifugation, the buffy coat containing the PBMCs was collected with almost 350 μl of plasma to a cell density of approximately 1 × 10^6 cells ml^−1. […]
For the in-cell thermal aggregation curve experiments, the compound solution was mixed with 9-fold volume of the suspension of cells at approximately 2 × 10^6 cells ml^−1 and the cells were incubated for 30 min at 37 °C, 5% CO2. […] Both whole and supernatant samples were analysed by sodium dodecyl sulfate polyacrylamide gel electrophoresis (SDS-PAGE) followed by Western blotting.
For the ITDRF in cell experiments, compounds were serially diluted to generate dose response curves. […] The heat-treated samples were treated as for the sample preparation and analysed with Western blotting following the procedure described above. […]

The structures appear in SMILES notation. Like-named read-outs stand apart in the source and are kept apart here.

Experimental for phospho (Ser-345)-MLKL: as §1
Mouse phospho-MLKL ELISA assay. Phospho- MLKL in L929 cells were detected b y gen eral sandwich E LISA . L929 cell l ysat es stimulated with necroptosis inducer wer e pr epar ed in the same manner as for the in vitro necroptosis assay. The protein content of each cell l ysates was adjusted to 2 00–300 µg m l –1 to be normalised. Then 100 µl of normalised samples were added onto 96-well ELIS A pl ates (442404, Nunc) whi ch had been coated with 100 µl of anti-mouse MLKL Ab (1 µg ml –1 in PBS) overnight at 4°C, and incubated for 1h at room temperatur e. Nex t, plates were incub ated with 100 µl of anti- phospho- M LKL Ab (1 µg m l –1 in PBS supplemented with 1% BSA and 0.05% Tween20) for 1h at room temperature. Then, plates were reacted with 100 µl of anti-rabbit IgG HRP for 1h followed b y detection with 100 µl of TM B. After stopping the reaction b y adding 100 µl of 0.5 M H2SO4, plates wer e r ead on a spectrophotometer, Viento® (DS Pharma Biomedical) at A450.

As for `CN1C(=O)[C@@H](N2CCc3c(nn(Cc4ccccc4)c3Cl)C2=O)COc2ccccc21` [Compound 18, (3S)-3-(2-benzyl-3-chloro-7-oxo-2,4,5,7-tetrahydro-6H-pyrazolo[3,4-c]pyridin-6-yl)-5-methyl-2,3-dihydro-1,5-benzoxazepin-4(5H)-one], the IC50 in the experiment with HT-29 cells is 1.5 nM.

`CNC(=O)c1ccc2c(c1)OC[C@H](N1CCc3c(nn(Cc4ccccc4)c3Cl)C1=O)C(=O)N2C` [Compound 23]: the IC50 was 16 nM in the experiment with phospho (Ser-345)-MLKL, 15 nM in the experiment with L929 cells and 1.8 nM in the experiment on HT-29 cells (Homo sapiens).

`CN1C(=O)[C@@H](N2CCc3cn(Cc4ccccc4F)nc3C2=O)COc2cc(C#N)ccc21` [Compound 25]: the IC50 was 66 nM with phospho (Ser-345)-MLKL; 140 nM in the experiment on L929 cells; 8.2 nM in the experiment with HT-29 cells (Homo sapiens); 1200 nM in experiment [2] (TNF-α + AT-406 + zVAD-FMK, 16–20 h, monocyte population by FACS). Further, in experiment [1], the “inhibition of TSZ-induced MLKL phosphorylation (p-MLKL)” value was “completely inhibited”. Also, the “restoration of monocyte number/fraction after TSZ stimulation” value in experiment [2] is reported as “rescued”.

`Nc1ncnc2occ(-c3ccc(NC(=O)Nc4cc(C(F)(F)F)ccc4F)cc3)c12` [GSK-compound 27, reference compound]: the IC50 in the experiment on HT-29 cells (Homo sapiens) was 300 nM.

Consider `CN1C(=O)C(Cc2c[nH]c3ccccc23)NC1=S` (centres unmarked) [Nec-1, Necrostatin-1, reference compound], for which the IC50 in the experiment on HT-29 cells (Homo sapiens) was 610 nM. Also, on human RIPK1, the EC50 turned out to be 1100 nM. Moreover, the “restoration of monocyte number/fraction after TSZ stimulation” value in experiment [2] is “restored”.

In general, IC50 refers to the point on the concentration scale where inhibition reaches its midpoint. One may read the EC50 as the concentration at which the effect is half-maximal.
